In paper PMC12406255, “Engineering Peptide Modulators for T‑Cell Migration by Structural Scaffold Matching” (Journal of Medicinal Chemistry, 2025):
Read-outs that look alike come from different tables or passages of the source. Positions of bridges follow the written chain, without caps; N, C: chain ends. Non-standard residues stand in square brackets, D forms with d. Residues, ends and D or L forms follow the SMILES beside them. No end group written: not given here. Nle = CCCC[C@H](N)C(=O)O

Tests used:
[1] = test system: CD3+ lymphocytes; assay: cells; format: cell-based, human; conditions: for % Inhibition of cell migration compared to control, CD3+: normalized to untreated control, mean ± SEM of 4-6 experiments
Procedure: 1 Transwell-based migration assay to study lymphocyte transendothelial migration. (A) The general principle of the transwell migration assay is depicted. Endothelial cells (EC) are seeded in transwell inserts and are incubated for 2 days to form an EC monolayer. On the day before the assay, the ECs are cytokine-stimulated to induce the expression of adhesion molecules. In the migration assay, human peripheral blood mononuclear cells (PBMC) are placed into the donor compartment of the transwell setup. After 4 h of incubation time, the migrated cells are harvested from the receiver compartment, stained with fluorescent antibodies and counted using flow cytometry. (B) PBMCs were preincubated with S1P for 1.5 h and then transferred into the donor compartment on top of the EC monolayer. […] Data are shown as mean ± SD of 3 to 5 independent experiments.
(§1) Transwell migration assays were performed similarly as published previously. HMEC-1 cells were seeded at a density of 75,000 cells per well in transwell inserts. Three days after cell seeding, the medium was changed, and the cells were stimulated with 100 ng/mL TNF-α and 20 ng/mL IFN-γ for 16–18 h. On the day of the assay, cells were washed with migration medium (serum-free RPMI medium supplemented with 0.1% BSA) to remove residual cytokines and starved for at least 1 h at 37 °C in migration medium. PBMC were starved for at least 1.5 h in migration medium before addition to the EC. For S1P and lifitegrast-treated samples, the PBMC were preincubated for at least 1.5 h at 37 °C with the ligands before addition to the EC. Pepitem and other peptides were added onto the EC monolayer and preincubated for 15–30 min at 37 °C before the addition of the PBMC. 200,000 PBMC per well were added directly on top of the EC prestimulated with pepitem or other peptides to reach a final volume of 150 μL in the donor compartments. The receiver compartments of the wells were filled with 600 μL RPMI with 20% FBS. After 4 h of migration at 37 °C, the receiver compartment with the migrated cells was collected. The migrated cells were stained with the indicated antibodies: CD3-APC (clone: OKT3, lot: B400127), CD4-PE (clone: OKT4. lot: B379180), CD8-FITC (clone: HIT8a, lot: B370193) from Biolegend and CD3-VioGreen (clone: REA613, lot: 5240502518), CD45RO-FITC (clone: REA611, lot: 5240502519), CD4-PerCP-Vio700 (clone: REA623, lot: 5240506702), CXCR3 PE-Vio615 (clone: REA232, lot: 5240506722), CD196-APC (clone: REA190, lot: 5240506717), CD8-APC-Vio770 (clone: REA734, lot: 5240303993) and CD45RO-PEVio616 (clone: REA611, lot: 5231102514) from Miltenyi Biotec (Bergisch Gladbach, Germany) and counted using precision counting beads (Biolegend) on a CytoflexS flow cytometer (BeckmanCoulter). Data was analyzed using CytExpert (Version 2.4). T cells were gated as CD3^+ cells, T cell subsets were gated as CD4^+ (CD3^+, CD4^+), CD8^+ (CD3^+, CD8^+), memory CD4^+ (CD3^+, CD4^+, CD45RO^+), memory CD8^+ (CD3^+, CD8^+, CD45RO^+) and Th1 cells (CD3^+, CD4^+, CXCR3^+, CCR6^–).
(§2) Data were analyzed using GraphPad Prism software. EC50 values were calculated by three-parameter nonlinear regression analysis. For this, the data points were normalized to the number of migrated cells in untreated (buffer) control samples (100%), and the regression was fitted with the top constraint to 100 and the slope fixed to 1. Statistical significance is indicated in graphs as n.s. not significant, * p < 0.05; ** p < 0.01; *** p < 0.001. The statistical tests used are indicated in the respective figure captions.

[2] = test system: memory CD4+ cells (CD3+, CD4+, CD45RO+); format: cell-based, human; conditions: normalized to untreated control, mean ± SEM of 4-6 experiments
Procedure: as §1, §2

[3] = test system: CD8+ lymphocytes (CD3+, CD8+); format: cell-based, human; conditions: normalized to untreated control, mean ± SEM of 4-6 experiments
Procedure: as §1, §2

[4] = test system: memory CD8+ cells (CD3+, CD8+, CD45RO+); format: cell-based, human; conditions: normalized to untreated control, mean ± SEM of 4-6 experiments
Procedure: as §1, §2

[5] = test system: CD4+ lymphocytes (CD3+, CD4+); format: cell-based, human; conditions: normalized to untreated control, mean ± SEM of 4-6 experiments
Procedure: as §1, §2

[6] = Serum stability assay; format: in vitro ADME; conditions: human serum of healthy donors, lipids removed by centrifugation, 37 °C, peptide 30-60 μM from 10-fold stock in PBS, followed over 48 h, urea/TFA quench, analytical RP-HPLC peak area vs time 0, one-phase decay fit, mean ± SD, n = 2 (pepitem n = 5); for half-life: read-out: Serum t 1/2 (converted)
Procedure: Stability of peptides in human serum was measured similarly to that previously described. In short, fresh blood from healthy donors was collected in serum collection tubes (Clot Activator Tube, Becton Dickinson, Plymouth, United Kingdom, […]) and incubated at 4 °C for 2 h to allow blood clotting. The serum was separated by centrifugation at 1000 × g for 10 min. To remove lipids from the serum, an additional centrifugation step was performed at 15,000 × g for 15 min at 4 °C, after which the serum was used for the stability assays. For this, the serum was prewarmed for 10 min at 37 °C before the addition of the test compounds. Peptides were prepared at a 10-fold concentration in PBS and diluted to a final concentration between 60 and 30 μM with the serum. The serum-peptide reaction mix was incubated at 37 °C, and 40 μL aliquots were taken at the indicated time points. To stop the reaction, samples were mixed with 40 μL of 6 M urea for 10 min on ice, followed by precipitation of serum proteins by the addition of 40 μL of 20% TFA and incubation for at least 10 min on ice. The precipitate was pelleted at 15,000 × g for 15 min, and 90 μL of the supernatant was freeze-dried. The dry material was resuspended in HPLC solvent A (0.1% TFA in ddH2O). Peptide quantification was performed using analytical HPLC. The remaining peptide relative to the starting point (time point 0) was calculated by peak integration to determine the area under the peak at the designated time points and further calculated in comparison to time point 0 min, which was set as 100%. To calculate the half-life of the peptides in human serum, data points were fitted with a one-phase decay equation.

[7] = Homo sapiens, Lymphocyte, PBMC preincubated with ligand for 1.5 h, then added onto EC monolayer, 4 h migration, mean ± SD, 3 or more experiments, read-out: EC50, inhibition of CD3+ cell migration

Molecule	% Inhibition of cell migration compared to control, CD3+ ([1]; 0.1 μM) [%]	% Inhibition of cell migration compared to control, CD3+ ([1]; 1 μM) [%]	% Inhibition of cell migration compared to control, Memory CD4+ ([2]; 0.1 μM) [%]	% Inhibition of cell migration compared to control, Memory CD4+ ([2]; 1 μM) [%]	% Inhibition of cell migration compared to control, CD8+ ([3]; 0.1 μM) [%]	% Inhibition of cell migration compared to control, CD8+ ([3]; 1 μM) [%]	% Inhibition of cell migration compared to control, Memory CD8+ ([4]; 0.1 μM) [%]	% Inhibition of cell migration compared to control, Memory CD8+ ([4]; 1 μM) [%]	% Inhibition of cell migration compared to control, CD4+ ([5]; 0.1 μM) [%]	% Inhibition of cell migration compared to control, CD4+ ([5]; 1 μM) [%]	half-life [6] [h]	EC50 ([1]; 4 h) [nM]	Serum t 1/2 [6] [h]	EC50 [1, 7] [nM]
CCCC[C@@H]1NC(=O)[C@H](C(C)C)NC(=O)[C@H](CCCCN)NC(=O)[C@@H](NC(=O)[C@H](CCC(N)=O)NC(=O)[C@H](CCC(=O)O)NC(C)=O)CSSC[C@@H](C(=O)N[C@@H](CCC(=O)O)C(=O)N[C@@H](CCCCN)C(N)=O)NC(=O)[C@H](CC(N)=O)NC(=O)[C@H](CC(=O)O)NC(=O)[C@H](CC(C)C)NC(=O)[C@@H]2CSSC[C@H](NC1=O)C(=O)N[C@@H](Cc1ccc(O)cc1)C(=O)N[C@@H](C)C(=O)N[C@@H](CCC(N)=O)C(=O)NCC(=O)N[C@@H](C)C(=O)N[C@@H](CCC(=O)O)C(=O)N[C@@H](CC(C)C)C(=O)N[C@@H](CO)C(=O)N1CCC[C@H]1C(=O)N[C@@H](CCC(=O)O)C(=O)N[C@@H](CC(C)C)C(=O)N[C@@H](CC(C)C)C(=O)N[C@@H](CCCNC(=N)N)C(=O)N[C@@H](CCCNC(=N)N)C(=O)N2 [VhTI-pep 1] (Ac-EQCKV[Nle]CYAQGAELSPELLRRCLDNCEK-NH2; disulfide 3-26, 7-22)	25.6 ± 6.4	33.4 ± 8.5	15.1 ± 14.2	39.5 ± 11.6	34.6 ± 8.0	38.4 ± 2.4	21.2 ± 3.1	29.6 ± 6.7	23.5 ± 9.7	30.3 ± 14.7	> 48	–	–	–
SVTEQGAELSNEER [Pepitem, reference compound]	–	–	–	–	–	–	–	–	–	–	~3	6 ± 6.4	3.1 ± 0.5	–
CC(=O)N[C@@H](CCC(=O)O)C(=O)N[C@@H](CCC(N)=O)C(=O)N[C@H]1CSSC[C@@H](C(=O)N[C@@H](CCC(=O)O)C(=O)N[C@@H](CCCCN)C(N)=O)NC(=O)[C@H](CC(N)=O)NC(=O)[C@H](CC(=O)O)NC(=O)[C@H](CC(C)C)NC(=O)[C@@H]2CSSC[C@H](NC(=O)[C@H]([C@@H](C)O)NC(=O)[C@H](C(C)C)NC(=O)[C@H](CO)NC1=O)C(=O)N[C@@H](CCC(=O)O)C(=O)N[C@@H](CCC(N)=O)C(=O)NCC(=O)N[C@@H](C)C(=O)N[C@@H](CCC(=O)O)C(=O)N[C@@H](CC(C)C)C(=O)N1CCC[C@H]1C(=O)N[C@@H](CO)C(=O)N[C@@H](CC(N)=O)C(=O)N[C@@H](CCC(=O)O)C(=O)N[C@@H](CCC(=O)O)C(=O)N[C@@H](CCCNC(=N)N)C(=O)N2 [VhTI-pep 6] (Ac-EQCSVTCEQGAELPSNEERCLDNCEK-NH2; disulfide 3-24, 7-20)	27.0 ± 9.7	14.9 ± 11.6	24.6 ± 11.6	14.7 ± 7.6	28.0 ± 8.2	1.6 ± 7.8	23.2 ± 4.3	0.6 ± 6.1	19.5 ± 9.9	14.6 ± 8.7	25.8 ± 9.7	–	–	–
CCCC[C@@H]1NC(=O)[C@H](C(C)C)NC(=O)[C@H](CCCCN)NC(=O)[C@@H](NC(=O)[C@H](CCC(N)=O)NC(=O)[C@H](CCC(=O)O)NC(C)=O)CSSC[C@@H](C(=O)N[C@@H](CCC(=O)O)C(=O)N[C@@H](CCCCN)C(N)=O)NC(=O)[C@H](CC(N)=O)NC(=O)[C@H](CC(=O)O)NC(=O)[C@H](CC(C)C)NC(=O)[C@@H]2CSSC[C@H](NC1=O)C(=O)N[C@@H](Cc1ccc(O)cc1)C(=O)N[C@@H](CCC(N)=O)C(=O)NCC(=O)N[C@@H](C)C(=O)N[C@@H](CCC(=O)O)C(=O)N[C@@H](CC(C)C)C(=O)N[C@@H](CO)C(=O)N1CCC[C@H]1C(=O)N[C@@H](CCC(=O)O)C(=O)N[C@@H](CC(C)C)C(=O)N[C@@H](CC(C)C)C(=O)N[C@@H](CCCNC(=N)N)C(=O)N[C@@H](CCCNC(=N)N)C(=O)N2 [VhTI-pep 4] (Ac-EQCKV[Nle]CYQGAELSPELLRRCLDNCEK-NH2; disulfide 3-25, 7-21)	16.7 ± 11.0	24.4 ± 8.0	12.9 ± 11.0	27.2 ± 7.8	19.5 ± 20.2	26.0 ± 10.7	27.9 ± 3.8	19.7 ± 7.9	16.5 ± 7.3	24.5 ± 5.9	> 48	–	–	–
CCCCCCCCCCCCC/C=C/[C@@H](O)[C@@H](N)COP(=O)(O)O [Sphingosine-1-phosphate, reference compound]	–	–	–	–	–	–	–	–	–	–	–	–	–	54.6 ± 49.1
CS(=O)(=O)c1cccc(C[C@H](NC(=O)c2c(Cl)cc3c(c2Cl)CCN(C(=O)c2ccc4ccoc4c2)C3)C(=O)O)c1 [lifitegrast, reference compound]	–	–	–	–	–	–	–	–	–	–	–	–	–	2.2 ± 3.6
